Measured values: patent US12152029B2, “Crystalline forms of a MAGL inhibitor” (H. Lundbeck A/S, priority 2021, dated 2024)

What was measured:
Assay type in all cases: physicochemical
[1] = Dynamic vapour sorption (DVS); details: for water uptake up to 90% RH / hygroscopicity by DVS analysis: 25° C.; for water uptake up to 90% RH: 0% RH to 90% RH; for hygroscopicity by DVS analysis: up to 90% RH; for Hygroscopicity in DVS, uptake at 90% RH: Table 3, 90% RH; for solid form by XRPD analysis after DVS analysis: after DVS cycle
Procedure: Dynamic vapour sorption (DVS) was measured using a SMS DVS Intrinsic moisture sorption analyser changing the relative humidity from 0% RH to 90% RH. The sample temperature was maintained at 25° C. The humidity was controlled by mixing streams of dry and wet nitrogen, with a total flow rate of 200 ml/min. The relative humidity was measured by a calibrated Rotronic probe (dynamic range of 1.0-100% RH), located near the sample. The weight change of the sample as a function of % RH was constantly monitored by a balance.
Typically, 5-30 mg of sample was placed in a tared mesh stainless steel basket under ambient conditions. The sample was loaded and unloaded at 40% RH and 25° C. (typical room conditions).

[2] = Competitive slurry experiments between Compound (I) form 1 and form 7; details: for relative thermodynamic stability: slurry in methanol or ethanol at 5° C., room temperature and 50° C. for one week
Procedure: The relative thermodynamic stability of Compound (I) form 1 and Compound (I) form 7 was elucidated using competitive slurry experiments as detailed in the following.
Step 1: Compound (I) form 1 (150 mg) and Compound (I) form 7 (150 mg) were mixed in a 20 mL vial. 40 mg (each) of this physical mixture was placed into six 2 mL vials.
Step 2: Using the remaining 60 mg of the physical mixture, saturated solutions with methanol and ethanol, respectively, were produced. The saturated solutions were filtered off.
Step 3: 10 volumes ([…]) of each saturated solution were added to each of the six 2 mL vials mentioned in step 1.
Step 4: One vial for each solvent was kept at 5° C., room temperature and 50° C. for one week.
XRPD analysis carried out on the solids yielded a pattern substantially similar to FIG. 1 for all six vials.

[3] = Variable temperature XRPD of Compound (I) form 7; details: VT-XRPD, heating 10° C./min
Procedure: Procedure 4 carried out under non-ambient conditions: For variable temperature (VT-XRPD) experiments the samples were prepared and analysed in an Anton Paar chromed sample holder. A heating/cooling rate of 10° C./min was used. The measurement parameters are as per the standard screening data collection method (detailed in Procedure 3 above). Measurements were taken at the following temperatures: 25, 100, 145, 150, 155, 160, 165, 170, 175, and 25° C.
Compound (I) form 7 obtained using the procedure detailed in Example 2 was subjected to variable temperature X-ray powder diffraction (VT-XRPD), as described in Example 10 (“[…]”).

[4] = Competitive slurry experiments between different forms of Compound (I) HCl salt
Procedure: Competitive slurry experiments between different form of Compound (I) HCl salt were performed to elucidate the relative thermodynamic stability between unsolvated crystalline forms of interest.
The resulting slurries were stirred for 3 hours to approach equilibrium conditions at either 5 or 50° C., 500 rpm. The following solvents and solvent combinations were utilized: EtOAc, MIBK, THF, MeCN, MeOH, and Acetone.
This dry powder mixture was mixed in a gyroscopic Turbula mixer for 2 hours. Then 50 mg aliquots of the mixture were weighed into HPLC vials and 0.5 mL of the above saturated solutions were added. The resulting suspensions were then stirred for 7 days.
The above competitive slurries were sampled after 1 and 7 days. The samples taken after 1 day were air dried and analyzed with XRPD. The samples taken after 7 days were first analyzed in wet state (covered with a Kapton film) in the XRPD and then subjected to air drying and analyzed again.

[5] = Solid form conversion of solvates on heating, drying or storage (XRPD)
[6] = Stability of HCl salt forms at accelerated (elevated) conditions; details: for Stability at elevated conditions: Table 3
Procedure: To further elucidate differences between the hydrochloride salt forms, their stability at accelerated conditions and their hygroscopicity was measured. The data are summarized in Table 3 together with the observations reported in Example 20.

[7] = DVS, listed as Compound (I) HCl form 5
[8] = DVS, listed as Compound (I) HCl form 6
[9] = DVS, listed as Compound (I) HCl form 4
[10] = DVS, listed as Compound (I) HCl form 2

## Cl.O=C(O)c1ccn(C(=O)N2CCC3(CCCN3Cc3ccc(C(F)(F)F)cc3N3CCCC3)CC2)n1 [Compound (I) HCl salt form 5]
[1]; [7]
  water uptake up to 90% RH: 9.2 % wt
  hygroscopicity by DVS analysis: moderately hygroscopic
[1]; listed as Form 5
  Hygroscopicity in DVS, uptake at 90% RH: (9.2 wt %

## O=C(O)c1ccn(C(=O)N2CCC3(CCCN3Cc3ccc(C(F)(F)F)cc3N3CCCC3)CC2)n1 [Compound (I) form 7, 1-(1-(2-(pyrrolidin-1-yl)-4-(trifluoromethyl)benzyl)-1,8-diazaspiro[4.5]decane-8-carbonyl)-1H-pyrazole-3-carboxylic acid]
[2]; methanol or ethanol, 5° C., room temperature, 50° C., one week
  form conversion in competitive slurry: transforms into Compound (I) form 1 at all temperatures tested
[3]
  temperature at which conversion to Compound (I) form 1 begins: 160 °C
  temperature at which exclusively Compound (I) form 1 was obtained: 170 °C
[1]; DVS
  water uptake up to 90% RH: ~6%
  hygroscopicity by DVS analysis: moderately hygroscopic
[1]
  solid form by XRPD analysis after DVS analysis: still Compound (I) form 7

## O=C(O)c1ccn(C(=O)N2CCC3(CCCN3Cc3ccc(C(F)(F)F)cc3N3CCCC3)CC2)n1 [Compound (I) form 1, 1-(1-(2-(pyrrolidin-1-yl)-4-(trifluoromethyl)benzyl)-1,8-diazaspiro[4.5]decane-8-carbonyl)-1H-pyrazole-3-carboxylic acid]
[2]
  relative thermodynamic stability: more thermodynamically stable than Compound (I) form 7 at all temperatures tested
[2]; listed as 1-(1-(2-(pyrrolidin-1-yl)-4-(trifluoromethyl)benzyl)-1,8-diazaspiro[4.5]decane-8)
  relative thermodynamic stability: thermodynamically stable
[1]; DVS
  water uptake up to 90% RH: < 1%
  hygroscopicity by DVS analysis: largely non-hygroscopic
[1]
  solid form by XRPD analysis after DVS analysis: still Compound (I) form 1

## Cl.O=C(O)c1ccn(C(=O)N2CCC3(CCCN3Cc3ccc(C(F)(F)F)cc3N3CCCC3)CC2)n1 [Compound (I) HCl salt form 6]
[1]; [8]
  water uptake up to 90% RH: 3.1 % wt
  hygroscopicity by DVS analysis: moderately hygroscopic
[1]; listed as Form 6
  Hygroscopicity in DVS, uptake at 90% RH: (3.1 wt %

## Cl.O=C(O)c1ccn(C(=O)N2CCC3(CCCN3Cc3ccc(C(F)(F)F)cc3N3CCCC3)CC2)n1 [Compound (I) HCl salt]
[4]; 5 ° C., Acetone
  XRPD ‘dry’ after 1 day: HCl salt Form 4
  XRPD ‘dry’ after 7 days: HCl salt Form 4
  XRPD ‘wet’ (Kapton film) after 7 days: metastable solvate
[4]; 5 ° C., EtOAc
  XRPD ‘dry’ after 1 day: HCl salt Form 2
  XRPD ‘dry’ after 7 days: HCl salt Form 2
  XRPD ‘wet’ (Kapton film) after 7 days: metastable solvate
[4]; 5 ° C., MIBK
  XRPD ‘wet’ (Kapton film) after 7 days: metastable solvate
[4]; 5 ° C., MeCN
  XRPD ‘dry’ after 1 day: HCl salt Form 5
  XRPD ‘dry’ after 7 days: HCl salt Form 5
  XRPD ‘wet’ (Kapton film) after 7 days: metastable solvate
[4]; 5 ° C., MeOH
  XRPD ‘wet’ (Kapton film) after 7 days: metastable solvate
[4]; 5 ° C., THF
  XRPD ‘dry’ after 1 day: HCl salt Form 4
  XRPD ‘dry’ after 7 days: HCl salt Form 4
  XRPD ‘wet’ (Kapton film) after 7 days: metastable solvate
[4]; 50 ° C., Acetone
  XRPD ‘dry’ after 1 day: HCl salt Form 2
  XRPD ‘dry’ after 7 days: HCl salt Form 2
  XRPD ‘wet’ (Kapton film) after 7 days: metastable solvate
[4]; 50 ° C., EtOAc
  XRPD ‘dry’ after 1 day: HCl salt Form 2
  XRPD ‘dry’ after 7 days: HCl salt Form 2
  XRPD ‘wet’ (Kapton film) after 7 days: metastable solvate
[4]; 50 ° C., MIBK
  XRPD ‘wet’ (Kapton film) after 7 days: metastable solvate
[4]; 50 ° C., MeCN
  XRPD ‘dry’ after 1 day: HCl salt Form 5
  XRPD ‘dry’ after 7 days: HCl salt Form 5
  XRPD ‘wet’ (Kapton film) after 7 days: metastable solvate
[4]; 50 ° C., MeOH
  XRPD ‘wet’ (Kapton film) after 7 days: metastable solvate
[4]; 50 ° C., THF
  XRPD ‘dry’ after 1 day: HCl salt Form 4
  XRPD ‘dry’ after 7 days: HCl salt Form 4
  XRPD ‘wet’ (Kapton film) after 7 days: metastable solvate

## C1COCCO1.O=C(O)c1ccn(C(=O)N2CCC3(CCCN3Cc3ccc(C(F)(F)F)cc3N3CCCC3)CC2)n1 [Compound (I) 1,4-dioxane solvate form 1, 1-(1-(2-(pyrrolidin-1-yl)-4-(trifluoromethyl)benzyl)-1,8-diazaspiro[4.5]decane-8-carbonyl)-1H-pyrazole-3-carboxylic acid 1,4-dioxane solvate form 1]
[5]; two hours in a vacuum oven at room temperature
  solid form change upon drying: transforms into Compound (I) form 1 upon drying

## Cl.O=C(O)c1ccn(C(=O)N2CCC3(CCCN3Cc3ccc(C(F)(F)F)cc3N3CCCC3)CC2)n1 [Compound (I) HCl salt MIBK solvate]
[5]; drying the solid (conditions not given)
  solid form change upon drying: transforms into Compound (I) HCl salt form 2 upon drying

## CC(C)=O.O=C(O)c1ccn(C(=O)N2CCC3(CCCN3Cc3ccc(C(F)(F)F)cc3N3CCCC3)CC2)n1 [Compound (I) acetone solvate, 1-(1-(2-(pyrrolidin-1-yl)-4-(trifluoromethyl)benzyl)-1,8-diazaspiro[4.5]decane-8-carbonyl)-1H-pyrazole-3-carboxylic acid acetone solvate]
[5]; heating for 2 min at 175° C.
  solid form change upon heating: transforms into Compound (I) form 1 at elevated temperature

## CC1CCCO1.Cl.O=C(O)c1ccn(C(=O)N2CCC3(CCCN3Cc3ccc(C(F)(F)F)cc3N3CCCC3)CC2)n1 [Compound (I) HCl salt 2-MeTHF solvate]
[5]; 40° C./75% RH for 7 days
  solid form change upon storage: transformed into Compound (I) HCl Form 2
[5]; 100° C. for 10 minutes
  solid form change upon drying: transformed into Compound (I) HCl salt form 4

## Cl.O=C(O)c1ccn(C(=O)N2CCC3(CCCN3Cc3ccc(C(F)(F)F)cc3N3CCCC3)CC2)n1 [Compound (I) HCl salt form 4, 1-(1-(2-(pyrrolidin-1-yl)-4-(trifluoromethyl)benzyl)-1,8-diazaspiro[4.5]decane-8-carbonyl)-1H-pyrazole-3-carboxylic acid HCl salt form 4]
[6]; listed as Form 4
  Stability at elevated conditions: No change
[1]; [9]
  water uptake up to 90% RH: 1.4 % wt
  hygroscopicity by DVS analysis: slightly hygroscopic
[1]; listed as Form 4
  Hygroscopicity in DVS, uptake at 90% RH: (1.4 wt %

## Cl.O=C(O)c1ccn(C(=O)N2CCC3(CCCN3Cc3ccc(C(F)(F)F)cc3N3CCCC3)CC2)n1 [Compound (I) HCl salt form 2, 1-(1-(2-(pyrrolidin-1-yl)-4-(trifluoromethyl)benzyl)-1,8-diazaspiro[4.5]decane-8-carbonyl)-1H-pyrazole-3-carboxylic acid HCl salt form 2]
[6]; listed as Form 2
  Stability at elevated conditions: No change
[6]; accelerated conditions
  stability compared with the other HCl salt forms: superior stability over Compound (I) HCl salt form 5 and form 6
[1]; DVS
  water uptake compared with the other HCl salt forms: lowest water uptake
[1]; [10]
  water uptake up to 90% RH: 0.5 % wt
  hygroscopicity by DVS analysis: slightly hygroscopic
[1]; listed as Form 2
  Hygroscopicity in DVS, uptake at 90% RH: (0.5 wt %
